{
  "source": "patent US8981066B2",
  "about": "“Epigenetic mechanisms related to DNA damage and aging” (Buck Institute for Research on Aging, priority 2011, dated 2015)",
  "key": {"[1]": {"tested_on": "H1.0 gene", "experiment": "H1.0 gene expression in hADSCs (qPCR)", "assay_type": "cell-based, human", "details": "bleomycin-treated hADSCs", "experimental": "FIGS. 4A-4C illustrate the dynamics of the meK172meK180 methylation of hi stone H1.0 upon genotoxic stress-induced senescence of human adult stem (hADSC). FIG. 4A: Cells we treated with 50 μg/ml bleomycin for 3 hrs. Drug was replaced with normal DMEM12 media and cells were assessed for ^meK172^meK180 histone H1 methylation and DNA damage γH2AX at different time points (panels A, B, and C) by immunohistochemistry. Cellular senescence was estimated by senescence-associated β-Gal activity (phase-contrast). FIGS. 4B and 4C show the results of Western blots using H1.0 methyl antibodies in crude cellular extracts from human ADSCs treated with Rapamycin (FIG. 4B) or rampamyucin and bleomycin (FIG. 4C). […] However, acute DDR results in transcriptional up regulation of H1.0 gene expression that could be influenced by TOR pathway suppression. 1, 2, 3—represent samples of three independent hADSCs cultures used in western blot and qPCR experiments.\nCellular senescence is believed to be associated with accumulation of persistent DNA damage (Sedelnikova et al. (2008) Aging Cell 7: 89-100; Rodier et al. (2009) Nat. Cell Biol., 11: 973-979) and activation of DNA damage response (DDR) pathways (Wang et al. (2011) Cell Cycle 10: 3016-3030; Sedelnikova et al. (2004) Nat. Cell Biol., 6: 168-170; Herbig et al. (2004) Molecular Cell, 14: 501-513; d'Adda et al. (2003) Nature 426: 194-198). […]"}, "[2]": {"tested_on": "meK172meK180 methylated form of H1.0 in hADSC cells", "experiment": "H1.0 meK172meK180 methylation and localisation in hADSCs upon bleomycin genotoxic stress (immunostaining, Western blot)", "assay_type": "cell-based, human", "details": "for nuclear meK172meK180 H1 methylation (initial DNA damage response): hADSC, bleomycin 50 μg/ml", "experimental": "FIGS. 4A-4C illustrate the dynamics of the meK172meK180 methylation of hi stone H1.0 upon genotoxic stress-induced senescence of human adult stem (hADSC). FIG. 4A: Cells we treated with 50 μg/ml bleomycin for 3 hrs. Drug was replaced with normal DMEM12 media and cells were assessed for ^meK172^meK180 histone H1 methylation and DNA damage γH2AX at different time points (panels A, B, and C) by immunohistochemistry. Cellular senescence was estimated by senescence-associated β-Gal activity (phase-contrast). […] 1, 2, 3—represent samples of three independent hADSCs cultures used in western blot and qPCR experiments.\nCellular senescence is believed to be associated with accumulation of persistent DNA damage and activation of DNA damage response (DDR) pathways. In the DDR pathway, some chromatin modifications seem to play a critical role in marking lesions or recruiting factors involved in repair, thus facilitating the function of repair proteins. The best characterized in this context are histone H2AX and H1 phosphorylation events."}},
  "data": [
    {"substance": "bleomycin", "values": [
      {"measurement": "H1.0 transcription upon acute DNA damage", "setting": "[1]", "result": "drastic increase"},
      {"measurement": "localisation of met H1.0 upon genotoxic-stress induced senescence", "setting": "[2]; bleomycin-treated hADSCs", "result": "eviction of met H1.0 into the cytoplasm"},
      {"measurement": "nuclear meK172meK180 H1 methylation (initial DNA damage response)", "setting": "[2]", "result": "triggers"},
      {"measurement": "nuclear meK172meK180 H1 methylation (initial DNA damage response)", "setting": "[2]; listed as bleomycine", "result": "rapid and robust nuclear H1.0 methylation"}
    ]}
  ]
}
